The subject of data set [1] is Rattus norvegicus. In words: Tested in vivo for anti-vasopressor potency injected intraperitoneally in phenoxybenzamine-treated rats under urethane anesthesia. The class given is functional.
The test system of data set [2] is Rattus norvegicus. The data set is described as follows: In vivo anti-vasopressor antagonistic activity expressed as negative logarithm of the effective dose divided by the estimated volume of distribution (67 mL/kg). The class given is ADME, organism-based. The settings on record: read-out: pA2 (converted).
Data set [3] is described as follows: In vivo antidiuretic antagonistic activity expressed as negative logarithm of the effective dose divided by the estimated volume of distribution (67 mL/kg). The class given is ADME, organism-based. The conditions noted are these: Urine; read-out: pA2 (converted).
In data set [4] the test system is Rattus norvegicus. In words: Tested in vivo for antidiuretic potency injected intraperitoneally in rats under ethanol anesthesia. Type of data set: ADME, organism-based, Urine. The conditions noted are these: ip.

Structures are written as SMILES. Starred links: 1 amine or outer side, 2 acyl side, 3 side chain; linkers in the order of their positions; H or OH if unused. Positions of bridges follow the written chain, without caps; N, C: chain ends. Non-standard residues stand in square brackets, D forms with d. Residues, ends and D or L forms follow the SMILES beside them. *: point of attachment. X1 = O=C(CC1(S[*:2])CCCCC1)[*:1]; iPr = CC(C)*

Turning to `COc1ccc(C[C@@H]2NC(=O)CC3(CCCCC3)SSC[C@@H](C(=O)N3CCC[C@H]3C(=O)N[C@H](CCCN=C(N)N)C(=O)NCC(N)=O)NC(=O)[C@H](CC(N)=O)NC(=O)[C@H](C(C)C)NC(=O)[C@H](Cc3ccccc3)NC2=O)cc1` (Y(Me)FVNCP[dR]G-NH2; linker N-5 via X1) [listing 1 of 2 here], the ED in data set [1] stood at 0.28 nM/kg.

As to `CCOc1ccc(C[C@@H]2NC(=O)CC3(CCCCC3)SSC[C@@H](C(=O)N3CCC[C@H]3C(=O)N[C@@H](CCCN=C(N)N)C(=O)NCC(N)=O)NC(=O)[C@H](CC(N)=O)NC(=O)[C@H](C(C)C)NC(=O)[C@H](Cc3ccccc3)NC2=O)cc1` (Y(Et)FVNCPRG-NH2; linker N-5 via X1) [listing 1 of 2 here], the Kb in data set [2] is 0.00692 µM; in data set [3] it was 0.0269 µM. This molecule also returned an ED in data set [4] of 1.9 nM/kg.

Consider `CC(C)Oc1ccc(C[C@@H]2NC(=O)CC3(CCCCC3)SSC[C@@H](C(=O)N3CCC[C@H]3C(=O)N[C@@H](CCCN=C(N)N)C(=O)NCC(N)=O)NC(=O)[C@H](CC(N)=O)NC(=O)[C@H](C(C)C)NC(=O)[C@H](Cc3ccccc3)NC2=O)cc1` (Y(iPr)FVNCPRG-NH2; linker N-5 via X1) [listing 1 of 2 here], for which the Kb in data set [2] was 0.00437 µM; in data set [3] it was 0.0479 µM. The molecule further yielded an ED in data set [4] of 3.6 nM/kg.

As to `COc1ccc(C[C@@H]2NC(=O)CC3(CCCCC3)SSC[C@@H](C(=O)N3CCC[C@H]3C(=O)N[C@H](CCCN=C(N)N)C(=O)NCC(N)=O)NC(=O)[C@H](CC(N)=O)NC(=O)[C@H](C(C)C)NC(=O)[C@H](Cc3ccccc3)NC2=O)cc1` (Y(Me)FVNCP[dR]G-NH2; linker N-5 via X1) [listing 2 of 2 here], the Kb was 0.00363 µM in data set [2] and 0.209 µM in data set [3]. The ED in data set [4] stood at 15 nM/kg.

In data set [1], `COc1ccc(C[C@@H]2NC(=O)CC3(CCCCC3)SSC[C@@H](C(=O)N3CCC[C@H]3C(=O)N[C@@H](CCCN=C(N)N)C(=O)NCC(N)=O)NC(=O)[C@H](CC(N)=O)NC(=O)[C@H](C(C)C)NC(=O)[C@H](Cc3ccccc3)NC2=O)cc1` (Y(Me)FVNCPRG-NH2; linker N-5 via X1) [listing 1 of 2 here] showed an ED of 0.29 nM/kg.

Take `COc1ccc(C[C@@H]2NC(=O)CC3(CCCCC3)SSC[C@@H](C(=O)N3CCC[C@H]3C(=O)N[C@@H](CCCN=C(N)N)C(=O)NCC(N)=O)NC(=O)[C@H](CC(N)=O)NC(=O)[C@H](C(C)C)NC(=O)[C@H](Cc3ccccc3)NC2=O)cc1` (Y(Me)FVNCPRG-NH2; linker N-5 via X1) [listing 2 of 2 here]: the results for the Kb in data set [2] and in data set [3] were 0.00479 µM and 0.0447 µM, respectively. Besides, the ED in data set [4] is 3.1 nM/kg.

The molecule `CCCOc1ccc(C[C@@H]2NC(=O)CC3(CCCCC3)SSC[C@@H](C(=O)N3CCC[C@H]3C(=O)N[C@H](CCCN=C(N)N)C(=O)NCC(N)=O)NC(=O)[C@H](CC(N)=O)NC(=O)[C@H](C(C)C)NC(=O)[C@H](Cc3ccccc3)NC2=O)cc1` [listing 1 of 2 here] came in with an ED in data set [1] of 1.1 nM/kg.

In turn, `CC(C)Oc1ccc(C[C@@H]2NC(=O)CC3(CCCCC3)SSC[C@@H](C(=O)N3CCC[C@H]3C(=O)N[C@H](CCCN=C(N)N)C(=O)NCC(N)=O)NC(=O)[C@H](CC(N)=O)NC(=O)[C@H](C(C)C)NC(=O)[C@H](Cc3ccccc3)NC2=O)cc1` (Y(iPr)FVNCP[dR]G-NH2; linker N-5 via X1) [listing 1 of 2 here] returned an ED in data set [1] of 0.28 nM/kg.

In the case of `CC(C)Oc1ccc(C[C@@H]2NC(=O)CC3(CCCCC3)SSC[C@@H](C(=O)N3CCC[C@H]3C(=O)N[C@@H](CCCN=C(N)N)C(=O)NCC(N)=O)NC(=O)[C@H](CC(N)=O)NC(=O)[C@H](C(C)C)NC(=O)[C@H](Cc3ccccc3)NC2=O)cc1` (Y(iPr)FVNCPRG-NH2; linker N-5 via X1) [listing 2 of 2 here], in data set [1], the ED is 0.31 nM/kg.

For `CC(C)Oc1ccc(C[C@@H]2NC(=O)CC3(CCCCC3)SSC[C@@H](C(=O)N3CCC[C@H]3C(=O)N[C@H](CCCN=C(N)N)C(=O)NCC(N)=O)NC(=O)[C@H](CC(N)=O)NC(=O)[C@H](C(C)C)NC(=O)[C@H](Cc3ccccc3)NC2=O)cc1` (Y(iPr)FVNCP[dR]G-NH2; linker N-5 via X1) [listing 2 of 2 here], the Kb was 0.00389 µM in data set [2] and 0.132 µM in data set [3]. In data set [4], this molecule had an ED of 8.5 nM/kg.

Turning to `CCOc1ccc(C[C@@H]2NC(=O)CC3(CCCCC3)SSC[C@@H](C(=O)N3CCC[C@H]3C(=O)N[C@H](CCCN=C(N)N)C(=O)NCC(N)=O)NC(=O)[C@H](CC(N)=O)NC(=O)[C@H](C(C)C)NC(=O)[C@H](Cc3ccccc3)NC2=O)cc1` (Y(Et)FVNCP[dR]G-NH2; linker N-5 via X1) [listing 1 of 2 here], the Kb in data set [3] was 0.0794 µM. The ED in data set [4] is 5.7 nM/kg.

Regarding `CCCOc1ccc(C[C@@H]2NC(=O)CC3(CCCCC3)SSC[C@@H](C(=O)N3CCC[C@H]3C(=O)N[C@@H](CCCN=C(N)N)C(=O)NCC(N)=O)NC(=O)[C@H](CC(N)=O)NC(=O)[C@H](C(C)C)NC(=O)[C@H](Cc3ccccc3)NC2=O)cc1` [listing 1 of 2 here], the Kb is 0.00603 µM in data set [2] and 0.0513 µM in data set [3]. This molecule also showed an ED in data set [4] of 3.5 nM/kg.

`CCCOc1ccc(C[C@@H]2NC(=O)CC3(CCCCC3)SSC[C@@H](C(=O)N3CCC[C@H]3C(=O)N[C@H](CCCN=C(N)N)C(=O)NCC(N)=O)NC(=O)[C@H](CC(N)=O)NC(=O)[C@H](C(C)C)NC(=O)[C@H](Cc3ccccc3)NC2=O)cc1` [listing 2 of 2 here]: the values for the Kb in data set [2] and in data set [3] were 0.0138 µM and 0.214 µM, respectively. Also, in data set [4], the ED was 14 nM/kg.

On to `CCOc1ccc(C[C@@H]2NC(=O)CC3(CCCCC3)SSC[C@@H](C(=O)N3CCC[C@H]3C(=O)N[C@@H](CCCN=C(N)N)C(=O)NCC(N)=O)NC(=O)[C@H](CC(N)=O)NC(=O)[C@H](C(C)C)NC(=O)[C@H](Cc3ccccc3)NC2=O)cc1` (Y(Et)FVNCPRG-NH2; linker N-5 via X1) [listing 2 of 2 here], for which the ED in data set [1] was determined as 0.49 nM/kg.

In data set [1], `CCCOc1ccc(C[C@@H]2NC(=O)CC3(CCCCC3)SSC[C@@H](C(=O)N3CCC[C@H]3C(=O)N[C@@H](CCCN=C(N)N)C(=O)NCC(N)=O)NC(=O)[C@H](CC(N)=O)NC(=O)[C@H](C(C)C)NC(=O)[C@H](Cc3ccccc3)NC2=O)cc1` [listing 2 of 2 here] showed an ED of 0.4 nM/kg.

For `CCOc1ccc(C[C@@H]2NC(=O)CC3(CCCCC3)SSC[C@@H](C(=O)N3CCC[C@H]3C(=O)N[C@H](CCCN=C(N)N)C(=O)NCC(N)=O)NC(=O)[C@H](CC(N)=O)NC(=O)[C@H](C(C)C)NC(=O)[C@H](Cc3ccccc3)NC2=O)cc1` (Y(Et)FVNCP[dR]G-NH2; linker N-5 via X1) [listing 2 of 2 here], the ED in data set [1] was 0.34 nM/kg.
